One block for each compound: values may come before it.
Experiments:
[1] = test system: Rat Carrageenan-Induced Footpad Edema; experiment: Rat Carrageenan-Induced Footpad Edema Test; type: in vivo, male Sprague Dawley rats; details: Rattus norvegicus, 3 h, footpad volume 3 hours after carrageenan, read-out: PERCENT INHIBITION; for inhibition in vivo at 5 mg/kg: iv, IV; for inhibition in vivo at 2 mg/kg / inhibition in vivo at 10 mg/kg / inhibition in vivo at 3 mg/kg: po, PO
[2] = biological target: T1, cPLA2 (Homo sapiens, UniProt P47712); experiment: Coumarin Assay (cPLA2 inhibition); type: biochemical; details: for inhibition at 50 µM: CONCENTRATION 50 micromolar; for inhibition at 4.8 µM: CONCENTRATION 4.8 micromolar; for inhibition at 10.5 µM: CONCENTRATION 10.5 micromolar
T1 sequence (P47712 1-749): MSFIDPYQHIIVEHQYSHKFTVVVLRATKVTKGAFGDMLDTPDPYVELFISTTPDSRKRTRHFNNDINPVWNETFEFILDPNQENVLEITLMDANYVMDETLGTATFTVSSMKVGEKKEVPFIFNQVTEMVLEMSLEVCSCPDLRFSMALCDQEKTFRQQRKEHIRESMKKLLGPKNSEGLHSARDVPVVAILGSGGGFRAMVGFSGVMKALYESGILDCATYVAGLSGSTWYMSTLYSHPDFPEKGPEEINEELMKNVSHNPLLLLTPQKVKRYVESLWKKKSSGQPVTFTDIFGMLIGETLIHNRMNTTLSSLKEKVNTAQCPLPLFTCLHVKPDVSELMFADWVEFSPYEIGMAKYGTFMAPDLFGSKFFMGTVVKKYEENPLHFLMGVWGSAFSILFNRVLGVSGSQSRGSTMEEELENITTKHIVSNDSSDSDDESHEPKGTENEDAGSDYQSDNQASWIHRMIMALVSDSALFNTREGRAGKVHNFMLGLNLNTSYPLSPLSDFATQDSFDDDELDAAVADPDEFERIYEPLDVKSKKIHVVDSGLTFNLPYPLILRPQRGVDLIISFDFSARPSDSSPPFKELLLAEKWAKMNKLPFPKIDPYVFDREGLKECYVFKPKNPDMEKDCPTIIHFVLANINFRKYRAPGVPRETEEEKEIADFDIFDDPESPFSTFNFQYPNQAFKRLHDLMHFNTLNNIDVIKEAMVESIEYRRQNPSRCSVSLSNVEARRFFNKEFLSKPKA
Summary of the method: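 Percent inhibition at the stated concentration, from the rate of 460 nm emission rise (360 nm excitation) per minute. Reaction started by adding 4 μg enzyme to compound and 60 μM 7-hydroxycoumarinyl 6-heptenoate in Hepes buffer pH 7.5 with 1 mM EDTA.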

[3] = CONCENTRATION 100 micromolar, read-out: PERCENT INHIBITION @

- inhibition at 100 µM [2, 3]: 22%
- inhibition at 265 µM ([2]; CONCENTRATION 265 micromolar, read-out: PERCENT INHIBITION @): 50%
- inhibition at 350 µM ([2]; CONCENTRATION 350 micromolar, read-out: PERCENT INHIBITION @): 50%
SMILES: O=C(O)CCc1cn(C(c2ccccc2)c2ccccc2)c2ccc(NC(=O)C3CCCC3)cc12 [Example 84, 3-{1-benzhydryl-5-[(cyclopentylcarbonyl)amino]-1H-indol-3-yl}propanoic acid]
- inhibition in vivo at 5 mg/kg [1]: 6.15%

- inhibition at 100 µM [2, 3]: 31%
- inhibition at 200 µM ([2]; CONCENTRATION 200 micromolar, read-out: PERCENT INHIBITION @): 50%
SMILES: CS(=O)(=O)NC(=O)CCc1cn(C(c2ccccc2)c2ccccc2)c2ccc(NC(=O)C3CCCC3)cc12 [Example 85, N-(1-benzhydryl-3-{3-[(methylsulfonyl)amino]-3-oxopropyl}-1H-indol-5-yl)cyclopentanecarboxamide]
- inhibition in vivo at 5 mg/kg [1]: 7.13%

- inhibition at 60 µM ([2]; CONCENTRATION 60 micromolar, read-out: PERCENT INHIBITION @): 50%
- inhibition at 70 µM ([2]; CONCENTRATION 70 micromolar, read-out: PERCENT INHIBITION @): 50%
- inhibition at 82 µM ([2]; CONCENTRATION 82 micromolar, read-out: PERCENT INHIBITION @): 50%
- inhibition at 118 µM ([2]; CONCENTRATION 118 micromolar, read-out: PERCENT INHIBITION @): 50%
SMILES: O=C(O)/C=C/c1cn(C(c2ccccc2)c2ccccc2)c2ccc(NC(=O)C3CCCC3)cc12 [Example 86A, (E)-3-{1-benzhydryl-5-[(cyclopentylcarbonyl)amino]-1H-indol-3-yl}-2-propenoic acid]
- inhibition in vivo at 5 mg/kg [1]: 7.4%

- inhibition at 50 µM ([2]; read-out: PERCENT INHIBITION @): 33%
- inhibition at 95 µM ([2]; CONCENTRATION 95 micromolar, read-out: PERCENT INHIBITION @): 50%
SMILES: O=C(O)/C=C/c1cn(C(c2ccccc2)c2ccccc2)c2ccc([N+](=O)[O-])cc12 [Example 87A, (E)-3-{1-benzhydryl-5-nitro-1H-indol-3-yl}-2-propenoic acid]
- inhibition in vivo at 2 mg/kg [1]: 12.9%
- inhibition in vivo at 10 mg/kg [1]: 25.4%

- inhibition at 38 µM ([2]; CONCENTRATION 38 micromolar, read-out: PERCENT INHIBITION @): 50%
- inhibition at 42.5 µM ([2]; CONCENTRATION 42.5 micromolar, read-out: PERCENT INHIBITION @): 50%
SMILES: CS(=O)(=O)NC(=O)/C=C/c1cn(C(c2ccccc2)c2ccccc2)c2ccc([N+](=O)[O-])cc12 [Example 87B, N-((E)-3-{1-benzhydryl-5-nitro-1H-indol-3-yl}-2-propenoyl)methanesulfonamide]
- inhibition in vivo at 3 mg/kg [1]: 17.9%
- inhibition in vivo at 10 mg/kg [1]: 31.4%

- inhibition at 4.4 µM ([2]; CONCENTRATION 4.4 micromolar, read-out: PERCENT INHIBITION @): 50%
- inhibition at 4.8 µM ([2]; read-out: PERCENT INHIBITION @): 50%
SMILES: COc1cc(C(=O)O)ccc1Cc1cn(C(c2ccccc2)c2ccccc2)c2ccc(NS(=O)(=O)c3ccc(C(F)(F)F)cc3)cc12 [Example 89, 4-{[1-benzhydryl-5-({[4-(trifluoromethyl)phenyl]sulfonyl}amino)-1H-indol-3-yl]methyl}-3-methoxybenzoic acid]
- inhibition in vivo at 2 mg/kg [1]: 14.3%
- inhibition in vivo at 10 mg/kg [1]: 16.4%

- inhibition at 10.2 µM ([2]; CONCENTRATION 10.2 micromolar, read-out: PERCENT INHIBITION @): 50%
- inhibition at 10.5 µM ([2]; read-out: PERCENT INHIBITION @): 50%
SMILES: COc1cc(C(=O)O)ccc1Cc1cn(C(c2ccccc2)c2ccccc2)c2ccc(NS(=O)(=O)c3sc(NC(C)=O)nc3C)cc12 [Example 90, 4-{[5-({[2-(acetylamino)-4-methyl-1,3-thiazol-5-yl]sulfonyl}amino)-1-benzhydryl-1H-indol-3-yl]methyl}-3-methoxybenzoic acid]
- inhibition in vivo at 2 mg/kg [1]: -0.18%
- inhibition in vivo at 10 mg/kg [1]: 2.7%

- inhibition at 3.8 µM ([2]; CONCENTRATION 3.8 micromolar, read-out: PERCENT INHIBITION @): 50%
- inhibition at 4.25 µM ([2]; CONCENTRATION 4.25 micromolar, read-out: PERCENT INHIBITION @): 50%
SMILES: COc1cc(C(=O)O)ccc1Cc1cn(C(c2ccccc2)c2ccccc2)c2ccc(NS(=O)(=O)c3ccc(Cl)c([N+](=O)[O-])c3)cc12 [Example 91, 4-[(1-benzhydryl-5-{[(4-chloro-3-nitrophenyl)sulfonyl]amino}-1H-indol-3-yl)methyl]-3-methoxybenzoic acid]
- inhibition in vivo at 2 mg/kg [1]: 13.5%
- inhibition in vivo at 10 mg/kg [1]: 14.7%

- inhibition at 4.2 µM ([2]; CONCENTRATION 4.2 micromolar, read-out: PERCENT INHIBITION @): 50%
- inhibition at 4.9 µM ([2]; CONCENTRATION 4.9 micromolar, read-out: PERCENT INHIBITION @): 50%
SMILES: COc1cc(C(=O)O)ccc1Cc1cn(C(c2ccccc2)c2ccccc2)c2ccc(NS(=O)(=O)c3ccc(OC(F)(F)F)cc3)cc12 [Example 93, 4-{[1-benzhydryl-5-({[4-(trifluoromethoxy)phenyl]sulfonyl}amino)-1H-indol-3-yl]methyl}-3-methoxybenzoic acid]
- inhibition in vivo at 2 mg/kg [1]: -3.02%
- inhibition in vivo at 10 mg/kg [1]: 9.91%

- inhibition at 7 µM ([2]; CONCENTRATION 7 micromolar, read-out: PERCENT INHIBITION @): 50%
- inhibition at 7.5 µM ([2]; CONCENTRATION 7.5 micromolar, read-out: PERCENT INHIBITION @): 50%
SMILES: COc1cc(C(=O)O)ccc1Cc1cn(C(c2ccccc2)c2ccccc2)c2ccc(NS(=O)(=O)c3ccccc3C)cc12 [Example 94, 4-[(1-benzhydryl-5-{[(2-methylphenyl)sulfonyl]amino}-1H-indol-3-yl)methyl]-3-methoxybenzoic acid]
- inhibition in vivo at 2 mg/kg [1]: 19%
- inhibition in vivo at 3 mg/kg [1]: 3.13%

- inhibition at 11.5 µM ([2]; CONCENTRATION 11.5 micromolar, read-out: PERCENT INHIBITION @): 50%
- inhibition at 13 µM ([2]; CONCENTRATION 13 micromolar, read-out: PERCENT INHIBITION @): 50%
SMILES: COc1cc(C(=O)O)ccc1Cc1cn(C(c2ccccc2)c2ccccc2)c2ccc(NS(=O)(=O)c3c(C)nn(C)c3Cl)cc12 [Example 95, 4-[(1-benzhydryl-5-{[(5-chloro-1,3-dimethyl-1H-pyrazol-4-yl)sulfonyl]amino}-1H-indol-3-yl)methyl]-3-methoxybenzoic acid]
- inhibition in vivo at 2 mg/kg [1]: 14.9%
- inhibition in vivo at 10 mg/kg [1]: 23.2%

- inhibition at 8 µM ([2]; CONCENTRATION 8 micromolar, read-out: PERCENT INHIBITION @): 50%
- inhibition at 10.5 µM ([2]; read-out: PERCENT INHIBITION @): 50%
SMILES: COc1cc(C(=O)O)ccc1Cc1cn(C(c2ccccc2)c2ccccc2)c2ccc(NS(=O)(=O)c3c(C)noc3C)cc12 [Example 96, 4-[(1-benzhydryl-5-{[(3,5-dimethyl-4-isoxazolyl)sulfonyl]amino}-1H-indol-3-yl)methyl]-3-methoxybenzoic acid]
- inhibition in vivo at 2 mg/kg [1]: 29.4%
- inhibition in vivo at 10 mg/kg [1]: 22%

- inhibition at 50 µM ([2]; read-out: PERCENT INHIBITION @): 50%
- inhibition at 80 µM ([2]; CONCENTRATION 80 micromolar, read-out: PERCENT INHIBITION @): 50%
- inhibition at 94 µM ([2]; CONCENTRATION 94 micromolar, read-out: PERCENT INHIBITION @): 50%
SMILES: COc1cc(C(N)=O)ccc1Cc1cn(C(c2ccccc2)c2ccccc2)c2ccc(NC(=O)OC3CCCC3)cc12 [Example 97, Cyclopentyl-N-{3-[4-(aminocarbonyl)-2-methoxybenzyl]-1-benzhydryl-1H-indol-5-yl}carbamate]
- inhibition in vivo at 5 mg/kg [1]: 21.3%

- inhibition at 4.8 µM ([2]; read-out: PERCENT INHIBITION @): 50%
- inhibition at 6.25 µM ([2]; CONCENTRATION 6.25 micromolar, read-out: PERCENT INHIBITION @): 66%
- inhibition at 8.7 µM ([2]; CONCENTRATION 8.7 micromolar, read-out: PERCENT INHIBITION @): 50%
SMILES: COc1cc(-c2nnn[nH]2)ccc1Cc1cn(C(c2ccccc2)c2ccccc2)c2ccc(NC(=O)OC3CCCC3)cc12 [Example 98, cyclopentyl N-{1-benzhydryl-3-[2-methoxy-4-(1H-1,2,3,4-tetraazol-5-yl)benzyl]-1H-indol-5-yl}carbamate]
- inhibition in vivo at 5 mg/kg [1]: 18.4%

SMILES: O=C(O)c1cscc1NC(=O)c1cn(C(c2ccccc2)c2ccccc2)c2ccc(NC(=O)C3CCCC3)cc12 [Example 99, 4-[({1-benzhydryl-5-[(cyclopentylcarbonyl)amino]-1H-indol-3-yl}carbonyl)amino]-3-thiophenecarboxylic acid]
- inhibition in vivo at 2 mg/kg [1]: 24.5%
- inhibition in vivo at 10 mg/kg [1]: 22.8%
- inhibition at 30 µM ([2]; CONCENTRATION 30 micromolar, read-out: PERCENT INHIBITION @): 13%
- PERCENT INHIBITION @ ([2]; CONCENTRATION 100 micromolar): 50%
- inhibition at 100 µM [2, 3]: 38%
